Assay [1] concerns the target T1, Type-2 angiotensin II receptor (Homo sapiens, UniProt P50052). Further: in other assays of this panel Not Active means under 50% inhibition at 10 µM.
T1 sequence (P50052 whole entry): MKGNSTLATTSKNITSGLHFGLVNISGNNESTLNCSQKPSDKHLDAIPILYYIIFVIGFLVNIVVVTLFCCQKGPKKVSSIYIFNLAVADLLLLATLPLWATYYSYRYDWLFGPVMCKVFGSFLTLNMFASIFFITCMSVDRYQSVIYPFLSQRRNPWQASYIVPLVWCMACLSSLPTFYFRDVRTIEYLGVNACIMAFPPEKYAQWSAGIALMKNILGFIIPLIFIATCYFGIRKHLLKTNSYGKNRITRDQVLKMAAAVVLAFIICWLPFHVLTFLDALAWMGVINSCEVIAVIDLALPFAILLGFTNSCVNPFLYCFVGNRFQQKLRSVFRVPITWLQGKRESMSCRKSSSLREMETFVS
It counts as cell-based. As to conditions: cho-k1.

The target in the next assay is D(3) dopamine receptor (Homo sapiens, UniProt P35462). As to the kind of experiment: DRUGMATRIX: Dopamine D3 radioligand binding (ligand: [3H] Spiperone). It counts as cell membranes, CHO, Membrane.
For assay [2], the target named is T2, Neuropeptide Y receptor type 2 (Homo sapiens, UniProt P49146). Further: in other assays of this panel Not Active means under 50% inhibition at 10 µM.
T2 sequence (P49146 whole entry): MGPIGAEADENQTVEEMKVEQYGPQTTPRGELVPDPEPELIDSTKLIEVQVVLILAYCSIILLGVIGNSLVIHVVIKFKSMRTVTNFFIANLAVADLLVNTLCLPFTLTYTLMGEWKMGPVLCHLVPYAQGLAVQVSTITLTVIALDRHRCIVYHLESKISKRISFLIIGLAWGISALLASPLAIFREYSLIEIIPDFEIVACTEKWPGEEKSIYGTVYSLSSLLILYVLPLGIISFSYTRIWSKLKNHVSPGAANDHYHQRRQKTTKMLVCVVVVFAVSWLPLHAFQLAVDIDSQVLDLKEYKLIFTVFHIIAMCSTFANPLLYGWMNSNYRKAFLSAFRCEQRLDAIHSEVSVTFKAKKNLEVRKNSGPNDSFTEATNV
The assay is classed as cell membranes, KAN-TS, Membrane. The conditions noted are these: kan-ts.

Assay [3] is described as follows: DRUGMATRIX: Nicotinic Acetylcholine radioligand binding (ligand: [125I] Epibatidine). The assay is classed as cell membranes, Membrane. The conditions noted are these: imr-32; Not Active = under 50% inhibition at 10 µM.
For assay [4], the target named is cGMP-specific 3',5'-cyclic phosphodiesterase (Homo sapiens, UniProt O76074). As to the kind of experiment: DRUGMATRIX: Phosphodiesterase PDE5 enzyme inhibition (substrate: [3H]cGMP + cGMP). It counts as tissue-based, Platelet. As to conditions: platelet; Not Active = under 50% inhibition at 10 µM.
Assay [5] deals with Mitogen-activated protein kinase 1 (Homo sapiens, UniProt P28482). The assay can be described thus: DRUGMATRIX: Protein Serine/Threonine Kinase, ERK2 enzyme inhibition (substrate: Myelin Basic Protein). The arrangement: species or system Escherichia coli. As to conditions: Not Active = under 50% inhibition at 10 µM.
Another assay deals with Estrogen receptor beta (Homo sapiens, UniProt Q92731). The conditions noted are these: sf9.
Chain of Estrogen receptor beta (Q92731 whole entry): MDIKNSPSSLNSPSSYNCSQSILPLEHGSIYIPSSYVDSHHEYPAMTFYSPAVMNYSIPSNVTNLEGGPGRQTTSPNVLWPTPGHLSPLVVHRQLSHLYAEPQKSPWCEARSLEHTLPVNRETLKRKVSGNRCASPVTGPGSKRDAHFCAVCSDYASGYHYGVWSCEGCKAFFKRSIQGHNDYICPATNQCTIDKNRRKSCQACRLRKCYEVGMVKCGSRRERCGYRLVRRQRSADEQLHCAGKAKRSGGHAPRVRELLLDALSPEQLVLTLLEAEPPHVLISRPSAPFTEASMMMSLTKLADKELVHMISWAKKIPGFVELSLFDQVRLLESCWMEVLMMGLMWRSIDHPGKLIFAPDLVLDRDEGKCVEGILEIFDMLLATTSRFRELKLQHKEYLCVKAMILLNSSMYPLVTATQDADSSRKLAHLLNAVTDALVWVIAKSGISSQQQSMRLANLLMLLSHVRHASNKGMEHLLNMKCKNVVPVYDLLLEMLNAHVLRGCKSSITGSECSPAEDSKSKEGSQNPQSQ

Chain of Mitogen-activated protein kinase 1 (P28482 whole entry): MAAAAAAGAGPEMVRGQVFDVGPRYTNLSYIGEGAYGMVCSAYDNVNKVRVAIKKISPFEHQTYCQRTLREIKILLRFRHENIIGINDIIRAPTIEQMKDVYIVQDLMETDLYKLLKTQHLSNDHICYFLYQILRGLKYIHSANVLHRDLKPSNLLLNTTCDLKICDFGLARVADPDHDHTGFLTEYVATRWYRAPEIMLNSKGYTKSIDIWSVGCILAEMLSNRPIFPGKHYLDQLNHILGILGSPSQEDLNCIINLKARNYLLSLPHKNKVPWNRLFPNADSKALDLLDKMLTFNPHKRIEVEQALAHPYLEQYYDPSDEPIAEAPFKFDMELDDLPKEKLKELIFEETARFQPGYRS
Chain of D(3) dopamine receptor (P35462 whole entry): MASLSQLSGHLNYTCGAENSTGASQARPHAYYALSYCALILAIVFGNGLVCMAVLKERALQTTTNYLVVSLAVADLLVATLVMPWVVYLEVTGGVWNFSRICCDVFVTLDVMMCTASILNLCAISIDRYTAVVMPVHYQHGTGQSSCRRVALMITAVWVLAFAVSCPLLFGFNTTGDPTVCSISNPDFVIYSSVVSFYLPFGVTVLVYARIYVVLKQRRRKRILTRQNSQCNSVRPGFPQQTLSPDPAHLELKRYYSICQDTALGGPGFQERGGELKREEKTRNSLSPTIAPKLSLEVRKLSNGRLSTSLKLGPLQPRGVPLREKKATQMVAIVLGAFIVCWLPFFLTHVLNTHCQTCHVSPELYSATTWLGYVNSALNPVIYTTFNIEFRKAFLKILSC

As a reminder, the IC50 is the concentration that inhibits the measured activity by half. For orientation: Ki means a dissociation constant, usually derived from enzyme kinetics or from competition with a known ligand. With `CN(C/C=C/C#CC(C)(C)C)Cc1cccc2ccccc12` [TERBINAFINE], the IC50 result (in assay [1]; at D(3) dopamine receptor (cho); in assay [2]; in assay [3]; in assay [4]; in assay [5]) was “Not Active” in each case. Also, the IC50 result against Estrogen receptor beta is reported as “Not Active”. Moreover, the Ki result in assay [3] is recorded as “Not Active”.

With `CC[C@@H](C(=O)[C@@H](C)[C@@H](O)[C@H](C)[C@@H]1O[C@@H]([C@@H](CC)C(=O)O)CC[C@@H]1C)[C@H]1O[C@]2(C=C[C@@H](O)[C@]3(CC[C@@](C)([C@H]4CC[C@](O)(CC)[C@H](C)O4)O3)O2)[C@H](C)C[C@@H]1C` [SALINOMYCIN], the IC50 entry (in assay [1]; at D(3) dopamine receptor (cho); in assay [2]; in assay [3]; in assay [4]; in assay [5]) was “Not Active” in each case. For the same compound, on Estrogen receptor beta, the IC50 entry is on record as “Not Active”. Also, in assay [3], the Ki entry is reported as “Not Active”.

On to `Cc1c(C)c2c(c(C)c1O)CCC(C)(CN1CCN(c3cc(N4CCCC4)nc(N4CCCC4)n3)CC1)O2` (centres undefined), for which the IC50 result in assay [1] is “Not Active”; on D(3) dopamine receptor (read-out: IC50), 5.2 µM; in assay [2], “Not Active”; in assay [3], “Not Active”; in assay [4] it was “Not Active”; in assay [5], “Not Active”. Besides, at Estrogen receptor beta, the IC50 entry was “Not Active”. The Ki was 1.77 µM on D(3) dopamine receptor (read-out: Ki) and “Not Active” in assay [3].

Consider `Clc1ccccc1CN1CCc2sccc2C1` [TICLOPIDINE], for which the IC50 entry (in assay [1]; on D(3) dopamine receptor (cho); in assay [2]; in assay [3]; in assay [4]; in assay [5]) was “Not Active” in each case. On Estrogen receptor beta, the IC50 result was “Not Active”. The Ki entry in assay [3] is reported as “Not Active”.

Regarding `CC(C)NCC(O)c1ccc(NS(C)(=O)=O)cc1` (centres undefined) [SOTALOL], the IC50 result (in assay [1]; at D(3) dopamine receptor (cho); in assay [2]; in assay [3]; in assay [4]; in assay [5]) was “Not Active” throughout. Besides, the IC50 entry on Estrogen receptor beta is given as “Not Active”. For the same compound, the Ki entry in assay [3] is “Not Active”.

On to MANGANESE CHLORIDE ANHYDROUS, for which the IC50 result (in assay [1]; on D(3) dopamine receptor (cho); in assay [2]; in assay [3]; in assay [4]; in assay [5]) was “Not Active” in each case. Also, the IC50 result against Estrogen receptor beta is recorded as “Not Active”. The Ki entry (in assay [1]; on D(3) dopamine receptor (cho); in assay [2]; in assay [3]; in assay [4]; in assay [5]) was “Not Active” each time. The Ki entry at Estrogen receptor beta is reported as “Not Active”.

On to `Nc1cc(N2CCCCC2)nc(N)[n+]1[O-]` [MINOXIDIL], for which the IC50 entry (in assay [1]; at D(3) dopamine receptor (cho); in assay [2]; in assay [3]; in assay [4]; in assay [5]) was “Not Active” in each case. At Estrogen receptor beta, the IC50 result is recorded as “Not Active”. Besides, the Ki result in assay [3] is “Not Active”.

With `CO[C@H]1/C=C/O[C@@]2(C)Oc3c(C)c(O)c4c(O)c(c(/C=N/N5CCN(C6CCCC6)CC5)c(O)c4c3C2=O)NC(=O)/C(C)=C\C=C\[C@H](C)[C@H](O)[C@@H](C)[C@@H](O)[C@@H](C)[C@H](OC(C)=O)[C@@H]1C` [RIFAPENTINE], the IC50 result (in assay [1]; at D(3) dopamine receptor (cho); in assay [2]; in assay [3]; in assay [4]; in assay [5]) was “Not Active” throughout. Besides, at Estrogen receptor beta, the IC50 entry is on record as “Not Active”. Further, in assay [3], the inhibition constant (Ki) result is recorded as “Not Active”.

Regarding `COc1c2occc2cc2ccc(=O)oc12` [METHOXSALEN], the IC50 result (in assay [1]; at D(3) dopamine receptor (cho); in assay [2]; in assay [3]; in assay [4]; in assay [5]) was “Not Active” each time. Further, the IC50 result at Estrogen receptor beta was “Not Active”. Besides, the Ki entry in assay [3] was “Not Active”.
